Experimental data published in paper PMC10666452, “Direct inhibition of dioxygenases TET1 by the rheumatoid arthritis drug auranofin selectively induces cancer cell death in T-ALL” (Journal of Hematology & Oncology, 2023).

Biological target: T1, TET1 (TET1-CD) (Homo sapiens, UniProt Q8NFU7)
T1 construct: TET1 protein
T1 sequence (Q8NFU7 1418-2136 limits assumed): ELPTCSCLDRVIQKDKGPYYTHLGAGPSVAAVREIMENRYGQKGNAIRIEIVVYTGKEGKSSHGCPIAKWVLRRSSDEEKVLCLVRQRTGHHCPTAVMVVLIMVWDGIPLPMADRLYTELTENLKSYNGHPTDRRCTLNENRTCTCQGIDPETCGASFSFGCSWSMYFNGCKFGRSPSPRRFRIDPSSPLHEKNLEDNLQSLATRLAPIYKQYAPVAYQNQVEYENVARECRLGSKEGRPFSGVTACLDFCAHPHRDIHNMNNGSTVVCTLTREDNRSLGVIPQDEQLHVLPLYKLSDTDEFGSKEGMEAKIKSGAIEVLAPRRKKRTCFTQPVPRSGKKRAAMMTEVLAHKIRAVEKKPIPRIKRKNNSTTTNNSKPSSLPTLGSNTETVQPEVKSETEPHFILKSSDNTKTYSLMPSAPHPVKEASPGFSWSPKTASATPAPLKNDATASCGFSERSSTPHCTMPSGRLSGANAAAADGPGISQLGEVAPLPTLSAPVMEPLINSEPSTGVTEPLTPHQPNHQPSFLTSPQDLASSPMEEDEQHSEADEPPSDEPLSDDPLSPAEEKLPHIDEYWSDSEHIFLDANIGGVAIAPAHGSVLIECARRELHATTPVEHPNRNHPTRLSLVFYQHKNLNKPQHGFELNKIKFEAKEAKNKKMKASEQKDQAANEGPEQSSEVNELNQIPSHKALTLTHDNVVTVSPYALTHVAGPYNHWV
Assay: SPR competition against auranofin
Assay type: binding
Settings: competes with auranofin, 2-OG analogue

Question: `O=C(O)CNC(=O)C(=O)O` [NOG] was tested. Which “SPR competition against auranofin” value did it give?
Answer: both NOG and Fe (II) compete with auranofin for binding to TET1-CD
